Data: patent US11292782B2, “Diarylhydantoin compounds and methods of use thereof” (Nuvation Bio Inc., priority 2018, dated 2022)
Like-named read-outs stand apart in the source and are kept apart here.

How the values were obtained:
Assay type in all cases: cell-based
Human AR [1] = biological target: T1, Human AR (Homo sapiens (Human), UniProt P10275); assay: AR agonist assay (GRE-LUC luciferase, transfected HEK-293 cells, test article alone); details: HEK-293 transfected with human AR, read-out: AR Agonist IC50
Experimental: (§1) Human AR cDNA cloned into pCMV vector, GRE-LUC, and CMV-renilla-LUC were used to transfect cells. HEK-293 cells (ATCC) were plated at 120,000 cells per well of a 24 well plate in DME+5% csFBS (Fisher Scientific, Waltham, Mass.). The cells were transfected using Lipofectamine (Life Technologies, Carlsbad, Calif.) with 0.25 μg GRE-LUC, 0.010 μg CMV-LUC (renilla luciferase) and 25 ng of the AR. […] Luciferase assay was performed 48 hrs after transfection. Firefly luciferase assay values were normalized to renilla luciferase values and were graphed using graphpad prism software (La Jolla, Calif.). […] The IC50 or EC50 values were determined using non-linear regression and […] logistics fitting.

Human AR [2] = biological target: T1, Human AR; assay: AR antagonist assay (GRE-LUC luciferase, transfected HEK-293 cells, with 0.1 nM R1881); details: for IC50: with 0.1 nM R1881; for inhibition at 1 µM: HEK293
Experimental: as §1

GR = GR (Homo sapiens (Human), UniProt P04150); assay: GR antagonist assay (GRE-LUC luciferase, transfected COS-7 cells, with 0.1 nM dexamethasone); details: in the presence of 0.1 nM dexamethasone; for GR antagonist assay, % of vehicle: 10 μM
Experimental: COS-7 cells (ATCC, Manassas, Va.) were plated in 24 well plates in DME+5% csFBS without phenol red at 70,000 cells/well. Once the cells attached to the plates (typically after overnight incubation after plating), they were transfected in OPTIMEM medium (Life Technologies) using lipofectamine reagent (Life Technologies) with 0.25 μg GRE-LUC, 25 ng pCR3.1 GR, and 10 ng CMV-renilla LUC per well. Twenty-four hours after transfection, the cells were fed with DME+5% csFBS without phenol red (Fisher Scientific, Waltham, Mass.) and treated with the test compounds (1 pM to 10 μM dose range) in the presence of 0.1 nM dexamethasone (Sigma, St. Louis, Mo.). Sixteen to twenty-four hours after treatment, a luciferase assay was performed using the Dual Luciferase assay kit (Promega, Madison, Wis.). Firefly luciferase values were normalized to Renilla luciferase numbers.

LNCaP-abl cells = assay: Cell proliferation assay, LNCaP-abl (CellTiter-Glo); details: 72 h, 3 days; for activity at 3 µM: read-out: cell proliferation, % of vehicle at 3 μM; for activity at 10 µM: read-out: cell proliferation, % of vehicle at 10 μM
Experimental: (§2) LNCaP-abl (3,000 cells/well, received from Dr. Myles Brown, Dana Farber Cancer Institute), 22RV1 (1,000 cells/well), LNCaP (5,000 cells/well), or COS (3,000 cells/well) cells were plated in 96 well plates in 50 μl RPMI+10% FBS (Fisher Scientific, Waltham, Mass.). LNCaP, COS, and 22RV1 cells were obtained from ATCC. Cells were treated in RPMI+10% FBS with test articles, ranging from 1 nM to 10 μM. Three days later, viable cells (LNCaP-abl, 22RV1, and COS) were measured by CellTiter-Glo assay (Promega, Madison, Wis.). For LNCaP cells, medium containing test article was changed after 3 days of treatment, and after an additional 3 days of culture, viable cells were measured by CellTiter-Glo assay.
(§3) The LNCaP cell line is androgen responsive with AR and PSA expression. It contains a T877A mutation in the AR. The 22RV1 cell line is positive for AR and PSA with additional AR splice variants and is insensitive to androgen for cell proliferation. The LNCaP-abl cell line expresses both AR and GR but is insensitive to androgen for cell proliferation. COS-7 is used as an AR negative cell line in this experiment.

PSA gene expression = assay: AR activity assay: PSA gene expression (realtime PCR); details: 1 and 10 μM
Experimental: (§4) LNCaP (ATCC) or LNCaP-EnzR (MR49F was received from Dr. Martin Gleave, University of British Columbia) cells were plated in 96 well plates at 15,000-20,000 cells/well in RPMI+1% csFBS without phenol red. Cells were treated 2 days after plating and harvested 18 hours after treatment (for TMPRSS2) or 24 hours after treatment (for PSA and FKBP5). RNA was isolated (cells to ct kit, Life Technologies), cDNA synthesized (cells to ct kit), and expression of TMPRSS2, PSA or FKBP5 and expression of GAPDH were measured using realtime PCR primers and probes (TaqMan probes, Life Technologies) by realtime PCR (ABI 7900, Life Technologies). Relative expression was calculated using ddct method.

FKBP5 gene expression = assay: AR activity assay: FKBP5 gene expression (realtime PCR); details: 1 and 10 μM
Experimental: as §4

GFP-AR = GFP-AR (Homo sapiens (Human), UniProt P10275)
Experimental: COS cells plated in chamber slides in DME+5% csFBS without phenol red were transfected with […] GFP-AR using lipofectamine reagent.

LNCaP cells = assay: Cell proliferation assay, LNCaP (CellTiter-Glo); details: 6 days
Experimental: as §2, §3

22RV1 cells = assay: Cell proliferation assay, 22RV1 (CellTiter-Glo); details: 3 days; for cell proliferation, % of vehicle at 3 μM: 22RV1, 3 μM; for cell proliferation, % of vehicle at 10 μM: 22RV1, 10 μM
Experimental: as §2, §3

COS-7 cells = assay: Cell proliferation assay, COS-7 (CellTiter-Glo); details: 3 days; for cell proliferation, % of vehicle at 3 μM: COS-7, 3 μM; for cell proliferation, % of vehicle at 10 μM: COS-7, 10 μM
Experimental: as §2, §3

MR49F cells = assay: Cell proliferation assay, MR49F enzalutamide-resistant LNCaP cells (SRB); details: six days
Experimental: The outer wells of the 96 well plates were not used for treatment due to potential evaporation. Cells were treated with selected doses of the compounds with the final concentration of DMSO kept at 0.1%. The cells were re-treated three days later. At the end of six days of treatment, the cells were fixed using 40% w/v trichloroacetic acid and a […] (SRB) assay was performed to determine the cell viability.

[3] = test system: TMPRSS2 expression in LNCaP cells; assay: AR activity assay: TMPRSS2 gene expression in LNCaP cells (realtime PCR); details: 1 and 10 μM, in the presence of 0.1 nM R1881
Experimental: as §4

[4] = test system: TMPRSS2 expression in LNCaP-EnzR cells; assay: AR activity assay: TMPRSS2 gene expression in LNCaP-EnzR (MR49F) cells (realtime PCR); details: enzalutamide resistant LNCaP-EnzR cells, 1 and 10 μM
Experimental: as §4

[5] = COS cells, GFP-AR, 30 min pre-treatment, then R1881 for four hours

Sequence of GFP-AR (P10275 whole entry, looked up): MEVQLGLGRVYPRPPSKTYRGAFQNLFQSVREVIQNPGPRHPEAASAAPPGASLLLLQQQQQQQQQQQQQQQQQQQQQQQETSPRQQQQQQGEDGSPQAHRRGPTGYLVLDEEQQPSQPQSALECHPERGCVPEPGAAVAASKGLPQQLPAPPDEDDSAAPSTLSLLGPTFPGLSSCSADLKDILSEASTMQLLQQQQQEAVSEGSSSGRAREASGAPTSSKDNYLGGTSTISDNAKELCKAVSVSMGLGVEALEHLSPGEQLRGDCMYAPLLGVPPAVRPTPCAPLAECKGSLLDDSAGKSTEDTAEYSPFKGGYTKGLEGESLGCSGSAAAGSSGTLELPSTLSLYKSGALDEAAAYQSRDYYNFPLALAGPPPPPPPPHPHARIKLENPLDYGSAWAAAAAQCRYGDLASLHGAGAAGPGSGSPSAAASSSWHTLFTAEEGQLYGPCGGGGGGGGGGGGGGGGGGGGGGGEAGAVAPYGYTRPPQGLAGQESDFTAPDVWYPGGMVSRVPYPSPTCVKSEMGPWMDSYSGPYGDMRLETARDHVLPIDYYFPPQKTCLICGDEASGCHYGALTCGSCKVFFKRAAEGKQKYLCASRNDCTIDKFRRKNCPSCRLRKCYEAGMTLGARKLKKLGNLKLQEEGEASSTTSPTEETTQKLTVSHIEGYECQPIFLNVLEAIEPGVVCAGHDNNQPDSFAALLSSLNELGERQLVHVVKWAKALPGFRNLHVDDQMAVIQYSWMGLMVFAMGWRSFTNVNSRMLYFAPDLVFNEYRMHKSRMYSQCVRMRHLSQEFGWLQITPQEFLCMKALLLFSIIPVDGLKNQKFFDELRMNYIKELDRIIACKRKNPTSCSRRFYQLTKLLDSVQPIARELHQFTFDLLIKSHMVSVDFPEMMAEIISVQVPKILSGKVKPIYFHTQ
T1 sequence (P10275 whole entry): as the sequence (P10275 whole entry, looked up) above
Sequence of GR (P04150 whole entry): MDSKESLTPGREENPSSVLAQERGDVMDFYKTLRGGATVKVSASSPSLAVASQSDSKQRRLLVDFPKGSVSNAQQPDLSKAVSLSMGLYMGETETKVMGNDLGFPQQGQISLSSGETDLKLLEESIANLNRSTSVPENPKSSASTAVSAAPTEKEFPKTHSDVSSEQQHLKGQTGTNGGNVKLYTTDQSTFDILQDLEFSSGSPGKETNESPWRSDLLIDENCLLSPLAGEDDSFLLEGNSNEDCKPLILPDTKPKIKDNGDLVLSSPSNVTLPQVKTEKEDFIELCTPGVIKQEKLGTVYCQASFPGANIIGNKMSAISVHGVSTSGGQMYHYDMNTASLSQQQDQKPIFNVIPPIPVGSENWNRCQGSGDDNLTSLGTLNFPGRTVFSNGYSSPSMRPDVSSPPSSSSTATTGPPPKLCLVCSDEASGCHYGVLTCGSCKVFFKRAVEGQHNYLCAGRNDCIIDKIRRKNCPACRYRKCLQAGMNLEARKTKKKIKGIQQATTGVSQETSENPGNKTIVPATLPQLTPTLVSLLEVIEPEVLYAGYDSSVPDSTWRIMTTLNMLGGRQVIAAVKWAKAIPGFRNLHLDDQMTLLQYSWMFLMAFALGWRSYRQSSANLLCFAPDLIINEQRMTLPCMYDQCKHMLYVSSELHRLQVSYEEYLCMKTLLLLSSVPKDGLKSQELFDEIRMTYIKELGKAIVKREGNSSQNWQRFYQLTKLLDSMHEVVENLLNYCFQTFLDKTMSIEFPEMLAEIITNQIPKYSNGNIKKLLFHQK

Row | SMILES | EC50 (Human AR [1]) | IC50 (Human AR [2]) | IC50 (GR) | activity at 3 µM (LNCaP-abl cells) | activity at 10 µM (LNCaP-abl cells) | other results
1 | Cn1ccnc1C(=O)NCc1ccc(N2C(=O)N(c3ccc(C#N)c(C(F)(F)F)c3)C(=O)C2(C)C)cc1F [Compound 1] | > 10000 nM | 968 nM |  |  |  | 
2 | Cn1ccnc1C(=O)NCc1ccc(N2C(=S)N(c3ccc(C#N)c(C(F)(F)F)c3)C(=O)C2(C)C)cc1F [Compound 4] | > 10000 nM | 386 nM |  |  |  | 
3 | CC(C)(C)C(=O)NCc1ccc(N2C(=S)N(c3ccc(C#N)c(C(F)(F)F)c3)C(=O)C2(C)C)cc1F [Compound 6] | > 10000 nM | 778 nM | > 10000 nM | 79% | 101% | 
4 | CC1(C)C(=O)N(c2ccc(C#N)c(C(F)(F)F)c2)C(=S)N1c1ccc(CNC(=O)c2ccccn2)c(F)c1 [Compound 8] | > 10000 nM | 47.2 nM |  | 83% | 62% | PSA gene expression (PSA gene expression): significant inhibition; FKBP5 gene expression (FKBP5 gene expression): significant inhibition; AR localization (cytoplasmic or nuclear) (GFP-AR; [5]): nuclear; GR antagonist assay, % of vehicle (GR): 52%; cell proliferation, % of vehicle at 3 μM (LNCaP cells): 63%; cell proliferation, % of vehicle at 10 μM (LNCaP cells): 19%; cell proliferation, % of vehicle at 3 μM (22RV1 cells): 87%; cell proliferation, % of vehicle at 10 μM (22RV1 cells): 90%; cell proliferation, % of vehicle at 3 μM (COS-7 cells): 99%; cell proliferation, % of vehicle at 10 μM (COS-7 cells): 91%
5 | Cc1ncsc1C(=O)NCc1ccc(N2C(=S)N(c3ccc(C#N)c(C(F)(F)F)c3)C(=O)C2(C)C)cc1F [Compound 9] | > 10000 nM | 49.1 nM |  | 89% | 27% | AR localization (cytoplasmic or nuclear) (GFP-AR; [5]): nuclear; GR antagonist assay, % of vehicle (GR): 41%; cell proliferation, % of vehicle at 3 μM (LNCaP cells): 55%; cell proliferation, % of vehicle at 10 μM (LNCaP cells): 21%; cell proliferation, % of vehicle at 3 μM (22RV1 cells): 77%; cell proliferation, % of vehicle at 10 μM (22RV1 cells): 41%; cell proliferation, % of vehicle at 3 μM (COS-7 cells): 92%; cell proliferation, % of vehicle at 10 μM (COS-7 cells): 99%; cell proliferation, % of vehicle at 3 μM (MR49F cells; 3 μM): 53%; cell proliferation, % of vehicle at 10 μM (MR49F cells; 10 μM): 29%
6 | CC1(C)C(=O)N(c2ccc(C#N)c(C(F)(F)F)c2)C(=S)N1c1ccc(CNC(=O)c2cccnc2)c(F)c1 [Compound 12] | > 10000 nM | 108 nM | > 10000 nM | 95% | 61% | 
7 | CC1(C)C(=O)N(c2ccc(C#N)c(C(F)(F)F)c2)C(=S)N1c1ccc(CNC(=O)c2cncs2)cc1 [Compound 18] | > 10000 nM | 358 nM | > 10000 nM |  |  | 
8 | CC1(C)C(=O)N(c2ccc(C#N)c(C(F)(F)F)c2)C(=S)N1c1ccc(CNC(=O)c2ncccn2)cc1 [Compound 19] | > 10000 nM | 453 nM | > 10000 nM |  |  | 
9 | Cc1ncsc1C(=O)NCc1ccc(N2C(=S)N(c3ccc(C#N)c(C(F)(F)F)c3)C(=O)C2(C)C)cc1 [Compound 39] |  | 200 nM | > 10000 nM | 90% | 87% | 
10 | Cn1nccc1C(=O)NCc1ccc(N2C(=S)N(c3ccc(C#N)c(C(F)(F)F)c3)C(=O)C2(C)C)cc1F [Compound 42] |  | 77 nM | > 10000 nM | 98% | 60% | inhibition at 1 µM (Human AR [2]): 95%
11 | Cn1cncc1C(=O)NCc1ccc(N2C(=S)N(c3ccc(C#N)c(C(F)(F)F)c3)C(=O)C2(C)C)cc1F [Compound 44] |  | 120 nM | > 10000 nM | 87% | 71% | 
12 | Cc1ncc(C(=O)NCc2ccc(N3C(=S)N(c4ccc(C#N)c(C(F)(F)F)c4)C(=O)C3(C)C)cc2F)s1 [Compound 45] |  | 99 nM | > 10000 nM | 100% | 66% | inhibition at 1 µM (Human AR [2]): 95%
13 | CC1(C)C(=O)N(c2ccc(C#N)c(C(F)(F)F)c2)C(=S)N1c1ccc(CNC(=O)c2cnco2)c(F)c1 [Compound 60] |  | 115 nM | > 10000 nM | 75% | 96% | 
14 | Cc1ncsc1C(=O)NCc1ccc(N2C(=S)N(c3ccc(C#N)c(C(F)(F)F)c3)C(=O)C23CCC3)cc1F [Compound 65] |  | 64 nM | > 10000 nM | 94% | 83% | 
15 | Cc1ncsc1C(=O)NCc1ccc(N2C(=S)N(c3ccc(C#N)c(F)c3)C(=O)C2(C)C)cc1F [Compound 68] |  | 120 nM |  | 89% | 85% | GR antagonist assay, % of vehicle (GR): 84%
16 | CC1(C)C(=O)N(c2ccc(C#N)c(F)c2)C(=S)N1c1ccc(CNC(=O)c2ccccn2)c(F)c1 [Compound 69] |  | 380 nM | > 10000 nM | 77% | 81% | 
17 | Cc1ccccc1C(=O)NCc1ccc(N2C(=S)N(c3ccc(C#N)c(F)c3)C(=O)C2(C)C)cc1F [Compound 71] |  | 589 nM | > 10000 nM | 86% | 81% | 
18 | Cn1nccc1C(=O)NCc1ccc(N2C(=S)N(c3ccc(C#N)c(C(F)(F)F)c3)C(=O)C23CCC3)cc1F [Compound 73] |  | 92 nM | 2960 nM | 79% | 66% | 
19 | Cc1ncsc1C(=O)NCc1ccc(N2C(=S)N(c3cccc(C(F)(F)F)c3)C(=O)C2(C)C)cc1F [Compound 76, N-(4-(5,5-dimethyl-4-oxo-2-thioxo-3-(3-(trifluoromethyl)phenyl)-imidazolidin-1-yl)-2-fluorobenzyl)-4-methylthiazole-5-carboxamide] |  | > 10000 nM | 3310 nM | 72% | 88% | 
20 | C[C@]1(O)CC[C@H]2[C@@H]3CCC4=CC(=O)CCC4=C3C=C[C@@]21C [Compound R1881, reference compound] |  |  |  |  |  | AR localization (cytoplasmic or nuclear) (GFP-AR): nuclear
21 | CNC(=O)c1ccc(N2C(=S)N(c3ccc(C#N)c(C(F)(F)F)c3)C(=O)C2(C)C)cc1F [Enzalutamide, enzalutamide] |  |  |  |  |  | TMPRSS2 expression [3]: inhibitory effects; TMPRSS2 expression [4]: failed to reduce TMPRSS2 expression
